Data reported in US9115117B2, “Substituted piperidine compounds and their use as orexin receptor modulators” (JANSSEN PHARMACEUTICA NV, priority 2013, dated 2015).

What was measured:
rat orexin 1 receptor = rat orexin 1 receptor (Rattus norvegicus, UniProt P56718); experiment: Rat orexin 1 receptor radioligand binding; settings: HEK293 cells stably expressing rat orexin 1 receptor; apparent Ki; read-out: rOX1 Ki
Protocol: After centrifugation (2K×G, 5 min at 4° C.), the supernatant was aspirated and the pellets frozen and stored at −80° C. […] Each cell pellet from a 15 cm plate was resuspended in 10 mL, stored on ice, and homogenized for 45 sec prior to addition to the reactions. Competition binding experiments in 96 well polypropylene plates were performed using [^3H]-(1-(5-(2-fluoro-phenyl)-2-methyl-thiazol-4-yl)-1-((S)-2-(5-phenyl-(1,3,4)oxadiazol-2-ylmethyl)-pyrrolidin-1-yl)-methanone) (Moraveck Corporation, specific activity=35.3 Ci/mmol), diluted to a 10 nM concentration in PBS (4 nM final). […] The final concentration of DMSO in the reactions is equal to or less than 0.1%. Total and nonspecific binding was determined in the absence and presence of 10 μM almorexant. The total volume of each reaction is 200 μL (20 μL of diluted compounds, 80 μL of [3H]-(1-(5-(2-fluoro-phenyl)-2-methyl-thiazol-4-yl)-1-((S)-2-(5-phenyl-(1,3,4)oxadiazol-2-ylmethyl)-pyrrolidin-1-yl)-methanone) diluted in PBS and 100 μL of the cell suspension). […] The plates were washed 3 times by aspirating 30 ml PBS through the plates. Plates were dried in 55° C. oven for 60 min, scintillation fluid was added, and the radioactivity was counted on a Topcount (Packard).

human orexin 2 receptor = human orexin 2 receptor (Homo sapiens (Human), UniProt O43614); experiment: Human orexin 2 receptor radioligand binding ([3H]-EMPA); settings: HEK293 stably expressing human orexin 2 receptor; [3H]-EMPA; apparent Ki; read-out: hOX2 Ki
Chain of human orexin 2 receptor (O43614 whole entry): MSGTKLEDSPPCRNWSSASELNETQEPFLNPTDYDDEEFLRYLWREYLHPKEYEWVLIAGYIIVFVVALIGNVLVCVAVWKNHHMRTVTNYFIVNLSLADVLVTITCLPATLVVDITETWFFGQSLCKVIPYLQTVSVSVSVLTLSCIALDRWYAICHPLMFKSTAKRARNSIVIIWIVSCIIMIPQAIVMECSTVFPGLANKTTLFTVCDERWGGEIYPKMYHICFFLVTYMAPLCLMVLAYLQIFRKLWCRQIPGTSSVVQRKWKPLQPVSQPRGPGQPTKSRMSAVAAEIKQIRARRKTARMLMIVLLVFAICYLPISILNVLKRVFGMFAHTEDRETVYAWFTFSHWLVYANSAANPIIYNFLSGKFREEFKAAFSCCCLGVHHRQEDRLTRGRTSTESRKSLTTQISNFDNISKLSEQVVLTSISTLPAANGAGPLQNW
Protocol: After centrifugation (2K×G, 5 min at 4° C.), the supernatant was aspirated and the pellets frozen and stored at −80° C. […] Each cell pellet from a 15 cm plate was resuspended in 10 mL, stored on ice, and homogenized for 45 sec just prior to addition to the reactions. Competition binding experiments in 96 well polypropylene plates were performed using [^3H]-EMPA (Moraveck Corporation, specific activity=29.6 Ci/mmol), diluted to a 5 nM concentration in PBS (2 nM final concentration). […] The final concentration of DMSO in the reactions is equal to or less than 0.1%. Total and nonspecific binding was determined in the absence and presence of […]. The total volume of each reaction is 200 μL (20 μL of diluted compounds, 80 μL of [^3H]-EMPA diluted in PBS and 100 μL of the cell suspension).
The plates were washed 3 times by aspirating 30 ml PBS through the plates. Plates were dried in 55° C. oven for 60 min, scintillation fluid was added, and the radioactivity was counted on a Topcount (Packard).

human orexin 1 receptor = human orexin 1 receptor (Homo sapiens, UniProt O43613); experiment: Human orexin 1 receptor radioligand binding; settings: CHO cells stably expressing human orexin 1 receptor; apparent Ki; read-out: hOX1 Ki
Protocol: The in vitro affinity of the compounds of the invention for the rat/human orexin 1 and human orexin 2 receptors was determined by competitive radioligand binding using [^3H](1-(5-(2-fluoro-phenyl)-2-methyl-thiazol-4-yl)-1-((S)-2-(5-phenyl-(1,3,4)oxadiazol-2-ylmethyl)-pyrrolidin-1-yl)-methanone)(Langmead et al., 2004) and [^3H]EMPA (n-ethyl-2[96-methoxy-pyridin-3-yl)-(toluene-2-sulfonyl)-amino]-N-pyridin-3-ylmethyl acetamide), respectively (Langmead et al., 2004, British Journal of Pharmacology 141:340-346; Malherbe et al., 2004, British Journal of Pharmacology 156:1326-41).
Human Embryonic Kidney 293 cells (HEK293) stably expressing rat orexin 1 receptor (Genebank accession number NM_001525) or Chinese ovary cells (CHO) stably expressing human orexin 1 receptor (Genebank accession number NM_001526) were grown to confluency in DMEM (Hyclone, cat #SH30022), 10% FBS, 1× Pen/Strep, 1× sodium pyruvate, 10 mM HEPES, 600 µg/mL G418 and DMEM/F12 (Gibco, Cat #11039), 10% FBS, 1× Pen/Strep, 600 µg/mL G418 media, respectively on 150 cm^2 tissue culture plates, washed with 5 mM EDTA in PBS (HyClone Dulbecco's Phoshpate Buffered Saline 1× with Calcium and Magnesium, Cat #SH30264.01, hereafter referred to simply as PBS) and scraped into 50 ml tubes. After centrifugation (2K×G, 5 min at 4° C.), the supernatant was aspirated and the pellets frozen and stored at −80° C. Cells were resuspended in PBS in the presence of 1 tablet of protease inhibitor cocktail (Roche, Cat. #11836145001) per 50 mL. Each cell pellet from a 15 cm plate was resuspended in 10 mL, stored on ice, and homogenized for 45 sec prior to addition to the reactions. Competition binding experiments in 96 well polypropylene plates were performed using [^3H]-(1-(5-(2-fluoro-phenyl)-2-methyl-thiazol-4-yl)-1-((S)-2-(5-phenyl-(1,3,4)oxadiazol-2-ylmethyl)-pyrrolidin-1-yl)-methanone) (Moraveck Corporation, specific activity=35.3 Ci/mmol), diluted to a 10 nM concentration in PBS (4 nM final). […] The final concentration of DMSO in the reactions is equal to or less than 0.1%. Total and nonspecific binding was determined in the absence and presence of 10 μM almorexant. The total volume of each reaction is 200 μL (20 μL of diluted compounds, 80 μL of [3H]-(1-(5-(2-fluoro-phenyl)-2-methyl-thiazol-4-yl)-1-((S)-2-(5-phenyl-(1,3,4)oxadiazol-2-ylmethyl)-pyrrolidin-1-yl)-methanone) diluted in PBS and 100 μL of the cell suspension). Reactions were run for 60 min at room temperature and terminated by filtration through GF/C filter plates (PerkinElmer, Cat. #6005174) presoaked in 0.3% polyethylenimine using the cell harvester (PerkinElmer Filtermate). The plates were washed 3 times by aspirating 30 ml PBS through the plates. Plates were dried in 55° C. oven for 60 min, scintillation fluid was added, and the radioactivity was counted on a Topcount (Packard).

Ki (rat orexin 1 receptor) [µM] | Ki (human orexin 2 receptor) [µM] | Ki (human orexin 1 receptor) [µM] | Compound
8.2 | > 10 |  | Cc1ccc(C(=O)N2CCC[C@H](Nc3ccc(C(F)(F)F)cn3)[C@H]2C)c(-n2nccn2)c1 [Example 15, (4-methyl-2-(2H-1,2,3-triazol-2-yl)phenyl)((2R,3S)-2-methyl-3-((5-(trifluoromethyl)pyridin-2-yl)amino)piperidin-1-yl)methanone]
1.8 | 5.7 |  | COc1c(F)cccc1C(=O)N1CCC[C@@H](Nc2nc3cc(Cl)ccc3o2)[C@H]1C (racemic) [Example 62, (±)-cis-(3-((5-chlorobenzo[d]oxazol-2-yl)amino)-2-methylpiperidin-1-yl)(3-fluoro-2-methoxyphenyl)methanone]
1.1 | 1.3 |  | COc1c(F)cccc1C(=O)N1CCC[C@@H](Nc2cnc3ccccc3n2)[C@H]1C (racemic) [Example 64, (±)-cis-(3-fluoro-2-methoxyphenyl)(2-methyl-3-(quinoxalin-2-ylamino)piperidin-1-yl)methanone]
0.396 | 0.353 |  | COc1c(F)cccc1C(=O)N1CCC[C@@H](Nc2cnc3ccccc3n2)[C@@H]1C (racemic) [Example 50, (±)-trans-(3-fluoro-2-methoxyphenyl)(2-methyl-3-(quinoxalin-2-ylamino)piperidin-1-yl)methanone]
0.87 | 0.822 |  | C[C@H]1[C@H](Nc2ncc(F)cn2)CCCN1C(=O)c1ccccc1-n1nccn1 (racemic) [Example 40, (±)-trans-(2-(2H-1,2,3-triazol-2-yl)phenyl)(3-((5-fluoropyrimidin-2-yl)amino)-2-methylpiperidin-1-yl)methanone]
1.8 | > 10 |  | CCOc1ccccc1C(=O)N1CCC[C@@H](Nc2ccc(Br)cn2)[C@H]1C (racemic) [Example 59, (±)-cis-(3-(5-bromopyridin-2-yl)amino)-2-methylpiperidin-1-yl)(2-ethoxyphenyl)methanone]
0.373 | 1.3 |  | COc1c(F)cccc1C(=O)N1CCC[C@@H](Nc2nc3cc(Cl)ccc3o2)[C@@H]1C (racemic) [Example 47, (±)-trans-(3-((5-chlorobenzo[d]oxazol-2-yl)amino)-2-methylpiperidin-1-yl)(3-fluoro-2-methoxyphenyl)methanone]
4.5 | > 10 |  | COc1c(F)cccc1C(=O)N1CCC[C@@H](Nc2ccc(C(F)(F)F)cn2)[C@H]1C (racemic) [Example 54, (±)-cis-(3-fluoro-2-methoxyphenyl)(2-methyl-3-((5-(trifluoromethyl)pyridin-2-yl)amino)piperidin-1-yl)methanone]
1.2 | > 10 |  | CCOc1ccccc1C(=O)N1CCC[C@@H](Nc2ccc(C(F)(F)F)cn2)[C@H]1C (racemic) [Example 55, (±)-cis-(2-ethoxyphenyl)(2-methyl-3-((5-(trifluoromethyl)pyridin-2-yl)amino)piperidin-1-yl)methanone]
 |  | 9 | Cc1ccc(C(=O)N2CCC[C@@H](Nc3nccc(C(F)(F)F)n3)[C@@H]2C)c(-n2ccnn2)n1 (racemic) [Example 11, (±)-trans-(6-methyl-2-(1H-1,2,3-triazol-1-yl)pyridin-3-yl)(2-methyl-3-((4-(trifluoromethyl)pyrimidin-2-yl)amino)piperidin-1-yl)methanone]
0.69 | 1.5 |  | C[C@H]1[C@H](Nc2ccccn2)CCCN1C(=O)c1ccccc1-n1nccn1 (racemic) [Example 36, (±)-trans-(2-(2H-1,2,3-triazol-2-yl)phenyl)(2-methyl-3-(pyridin-2-ylamino)piperidin-1-yl)methanone]
 | 0.228 |  | Cc1ccc(-c2ncccn2)c(C(=O)N2CCC[C@@H](Nc3cc(C)nc(C(F)(F)F)n3)[C@@H]2C)c1 (racemic) [Example 7, (±)-trans-(5-methyl-2-(pyrimidin-2-yl)phenyl)(2-methyl-3-((6-methyl-2-(trifluoromethyl)pyrimidin-4-yl)amino)piperidin-1-yl)methanone]
 | 2.7 |  | COc1c(F)cccc1C(=O)N1CCC[C@@H](Nc2nccc(-c3ccccc3)n2)[C@@H]1C (racemic) [Example 52, (±)-trans-(3-fluoro-2-methoxyphenyl)(2-methyl-3-((4-phenylpyrimidin-2-yl)amino)piperidin-1-yl)methanone]
0.355 | 0.7 |  | C[C@H]1[C@H](Nc2ccc(F)cn2)CCCN1C(=O)c1ccccc1-n1nccn1 [Example 34, (2-(2H-1,2,3-triazol-2-yl)phenyl)((2S,3R)-3-((5-fluoropyridin-2-yl)amino)-2-methylpiperidin-1-yl)methanone]
 | 0.68 |  | CCOc1ccc(C)nc1C(=O)N1CCC[C@@H](Nc2ccc(C(F)(F)F)cn2)[C@@H]1C (racemic) [Example 16, (±)-trans-(3-ethoxy-6-methylpyridin-2-yl)(2-methyl-3-((5-(trifluoromethyl)pyridin-2-yl)amino)piperidin-1-yl)methanone]
> 10 | > 10 |  | C[C@@H]1[C@H](Nc2nc3cc(Cl)ccc3o2)CCCN1C(=O)c1ccccc1-n1nccn1 (racemic) [Example 60, (±)-cis-((2-(2H-1,2,3-triazol-2-yl)phenyl)(3-((5-chlorobenzo[d]oxazol-2-yl)amino)-2-methylpiperidin-1-yl)methanone]
 | 2.5 |  | CCOc1ccccc1C(=O)N1CCC[C@@H](Nc2nc3cc(Cl)ccc3o2)[C@H]1C (racemic) [Example 61, (±)-cis-(3-((5-chlorobenzo[d]oxazol-2-yl)amino)-2-methylpiperidin-1-yl)(2-ethoxyphenyl)methanone]
 | > 10 |  | C[C@@H]1[C@H](Nc2cnc3ccccc3n2)CCCN1C(=O)c1ccccc1-n1nccn1 (racemic) [Example 63, (±)-cis-(2-(2H-1,2,3-triazol-2-yl)phenyl)(2-methyl-3-(quinoxalin-2-ylamino)piperidin-1-yl)methanone]
0.496 | 3.9 |  | COc1c(F)cccc1C(=O)N1CCC[C@@H](Nc2ccc(C(F)(F)F)cn2)[C@@H]1C (racemic) [Example 28, (±)-trans-(3-fluoro-2-methoxyphenyl)(2-methyl-3-((5-(trifluoromethyl)pyridin-2-yl)amino)piperidin-1-yl)methanone]
